Assay results as given in the NIST ThermoML archive (doi:10.1021/je301164d).
± gives the expanded uncertainty stated by the source.

Settings: Fluid (supercritical or subcritical phases)

FC(C(F)(F)F)C(F)(F)F [1,1,1,2,3,3,3-heptafluoropropane]
Settings | speed of sound [m/s]
280 K, 603.72 kPa | 494.1 ± 0.23
280 K, 1104.4 kPa | 498.92 ± 0.23
280 K, 1604.7 kPa | 503.64 ± 0.23
280 K, 2105 kPa | 508.26 ± 0.23
280 K, 3105.8 kPa | 517.26 ± 0.23
280 K, 4106.2 kPa | 525.95 ± 0.24
280 K, 5107.1 kPa | 534.35 ± 0.24
280 K, 6107.9 kPa | 542.49 ± 0.24
280 K, 7109.3 kPa | 550.4 ± 0.25
280 K, 8110 kPa | 558.07 ± 0.25
280 K, 9110.7 kPa | 565.55 ± 0.25
280 K, 10111 kPa | 572.83 ± 0.26
280 K, 12613 kPa | 590.29 ± 0.26
280 K, 15115 kPa | 606.8 ± 0.27
280 K, 17616 kPa | 622.5 ± 0.27
280 K, 20118 kPa | 637.48 ± 0.28
280 K, 35129 kPa | 716.11 ± 0.31
280 K, 40132 kPa | 739.1 ± 0.32
280 K, 45136 kPa | 760.88 ± 0.33
280 K, 50139 kPa | 781.61 ± 0.34
280.01 K, 25122 kPa | 665.6 ± 0.29
280.01 K, 30125 kPa | 691.69 ± 0.3
299.99 K, 1103 kPa | 417.61 ± 0.2
299.99 K, 1603.4 kPa | 423.61 ± 0.2
299.99 K, 2103.8 kPa | 429.45 ± 0.2
300 K, 3106.4 kPa | 440.66 ± 0.21
300 K, 4107.2 kPa | 451.3 ± 0.21
300 K, 5107.9 kPa | 461.45 ± 0.21
300 K, 6108.6 kPa | 471.17 ± 0.22
300 K, 7109.4 kPa | 480.51 ± 0.22
300 K, 8110.1 kPa | 489.5 ± 0.23
300 K, 9110.1 kPa | 498.18 ± 0.23
300 K, 10111 kPa | 506.58 ± 0.23
300 K, 12612 kPa | 526.5 ± 0.24
300 K, 15114 kPa | 545.09 ± 0.24
300 K, 17616 kPa | 562.57 ± 0.25
300 K, 20118 kPa | 579.11 ± 0.26
300 K, 25122 kPa | 609.85 ± 0.27
300 K, 30126 kPa | 638.04 ± 0.28
300 K, 35129 kPa | 664.19 ± 0.29
300 K, 40132 kPa | 688.66 ± 0.3
300 K, 45136 kPa | 711.71 ± 0.31
300 K, 50139 kPa | 733.55 ± 0.32
320 K, 1104.2 kPa | 332.96 ± 0.17
320 K, 2104.9 kPa | 349.11 ± 0.18
320 K, 3105.5 kPa | 363.82 ± 0.18
320 K, 4105.6 kPa | 377.39 ± 0.19
320 K, 5106.4 kPa | 390.04 ± 0.19
320 K, 6107.1 kPa | 401.94 ± 0.19
320 K, 7107.7 kPa | 413.18 ± 0.2
320 K, 8108.4 kPa | 423.87 ± 0.2
320 K, 9109 kPa | 434.06 ± 0.21
320 K, 10110 kPa | 443.83 ± 0.21
320 K, 12612 kPa | 466.66 ± 0.22
320 K, 15113 kPa | 487.61 ± 0.23
320 K, 17615 kPa | 507.06 ± 0.23
320 K, 20117 kPa | 525.27 ± 0.24
320 K, 25120 kPa | 558.72 ± 0.25
320 K, 30124 kPa | 589.03 ± 0.26
320 K, 35128 kPa | 616.9 ± 0.27
320 K, 40131 kPa | 642.8 ± 0.28
320 K, 45135 kPa | 667.06 ± 0.29
320.01 K, 50138 kPa | 689.95 ± 0.3
340 K, 1603.1 kPa | 249.98 ± 0.14
340 K, 2103.4 kPa | 262.38 ± 0.15
340 K, 3104.1 kPa | 283.96 ± 0.15
340 K, 4104.8 kPa | 302.59 ± 0.16
340 K, 5105.4 kPa | 319.17 ± 0.17
340 K, 6106 kPa | 334.23 ± 0.17
340 K, 7106.7 kPa | 348.1 ± 0.18
340 K, 8108.1 kPa | 361.03 ± 0.18
340 K, 9108.9 kPa | 373.15 ± 0.18
340 K, 10110 kPa | 384.6 ± 0.19
340 K, 12612 kPa | 410.84 ± 0.2
340 K, 15113 kPa | 434.43 ± 0.21
340 K, 17615 kPa | 456 ± 0.21
340 K, 20117 kPa | 475.96 ± 0.22
340 K, 25120 kPa | 512.15 ± 0.23
340 K, 30124 kPa | 544.54 ± 0.25
340 K, 35127 kPa | 574.06 ± 0.26
340 K, 40130 kPa | 601.3 ± 0.27
340 K, 45134 kPa | 626.7 ± 0.28
340 K, 50138 kPa | 650.55 ± 0.29
360 K, 3604.3 kPa | 209.76 ± 0.13
360 K, 4104.8 kPa | 223.69 ± 0.14
360 K, 5105.6 kPa | 247.37 ± 0.14
360 K, 6106.5 kPa | 267.43 ± 0.15
360 K, 7107.4 kPa | 285.07 ± 0.15
360.01 K, 8109.2 kPa | 300.98 ± 0.16
360.01 K, 9110 kPa | 315.53 ± 0.17
360.01 K, 10111 kPa | 329.01 ± 0.17
360.01 K, 12612 kPa | 359.17 ± 0.18
360.01 K, 15114 kPa | 385.62 ± 0.19
360.01 K, 17616 kPa | 409.39 ± 0.2
360.01 K, 20118 kPa | 431.12 ± 0.2
360.01 K, 25122 kPa | 470 ± 0.22
360.01 K, 30125 kPa | 504.36 ± 0.23
360.01 K, 35129 kPa | 535.41 ± 0.24
360.01 K, 40132 kPa | 563.88 ± 0.25
360.01 K, 45135 kPa | 590.29 ± 0.26
360.01 K, 50139 kPa | 615 ± 0.27
380 K, 7107.3 kPa | 224.9 ± 0.14
380 K, 8108.1 kPa | 244.61 ± 0.14
380 K, 9108.9 kPa | 262.08 ± 0.15
380 K, 10110 kPa | 277.88 ± 0.15
380 K, 11110 kPa | 292.38 ± 0.16
380 K, 12111 kPa | 305.84 ± 0.16
380 K, 13112 kPa | 318.45 ± 0.17
380 K, 14112 kPa | 330.32 ± 0.17
380 K, 15113 kPa | 341.58 ± 0.17
380 K, 17615 kPa | 367.5 ± 0.18
380 K, 20117 kPa | 390.9 ± 0.19
380 K, 22618 kPa | 412.36 ± 0.2
380 K, 25120 kPa | 432.25 ± 0.21
380 K, 30123 kPa | 468.39 ± 0.22
380 K, 35127 kPa | 500.79 ± 0.23
380 K, 40130 kPa | 530.34 ± 0.24
380 K, 45134 kPa | 557.64 ± 0.25
380 K, 50137 kPa | 583.09 ± 0.26
400 K, 10108 kPa | 232.81 ± 0.14
400 K, 11109 kPa | 249.04 ± 0.14
400 K, 12109 kPa | 263.93 ± 0.15
400 K, 13110 kPa | 277.75 ± 0.15
400 K, 14111 kPa | 290.67 ± 0.16
400 K, 15112 kPa | 302.83 ± 0.16
400 K, 16112 kPa | 314.36 ± 0.17
400 K, 17113 kPa | 325.31 ± 0.17
400 K, 18114 kPa | 335.78 ± 0.17
400 K, 19115 kPa | 345.8 ± 0.17
400 K, 20116 kPa | 355.43 ± 0.18
400 K, 22618 kPa | 378.04 ± 0.19
400 K, 25119 kPa | 398.88 ± 0.19
400 K, 27621 kPa | 418.29 ± 0.2
400 K, 30123 kPa | 436.5 ± 0.21
400 K, 35126 kPa | 470.02 ± 0.22
400 K, 40130 kPa | 500.46 ± 0.23
400 K, 45133 kPa | 528.48 ± 0.24
400 K, 50137 kPa | 554.55 ± 0.25
420 K, 12108 kPa | 229.23 ± 0.14
420 K, 13109 kPa | 243.75 ± 0.14
420 K, 14110 kPa | 257.31 ± 0.14
420 K, 15111 kPa | 270.06 ± 0.15
420 K, 16111 kPa | 282.11 ± 0.15
420 K, 17112 kPa | 293.55 ± 0.16
420 K, 18113 kPa | 304.45 ± 0.16
420 K, 19114 kPa | 314.88 ± 0.17
420 K, 20115 kPa | 324.88 ± 0.17
420 K, 22617 kPa | 348.3 ± 0.18
420 K, 25118 kPa | 369.82 ± 0.18
420 K, 27620 kPa | 389.82 ± 0.19
420 K, 30122 kPa | 408.54 ± 0.2
420 K, 35125 kPa | 442.89 ± 0.21
420 K, 40129 kPa | 474.01 ± 0.22
420 K, 45133 kPa | 502.59 ± 0.23
420 K, 50136 kPa | 529.12 ± 0.24
420 K, 55140 kPa | 553.96 ± 0.25
420 K, 60143 kPa | 577.36 ± 0.26
420 K, 70150 kPa | 620.64 ± 0.28
420 K, 80158 kPa | 660.12 ± 0.29
420 K, 90165 kPa | 696.59 ± 0.31
